Patent US20230414617A1, “PHARMACEUTICAL COMPOSITION COMPRISING ACID-BASE NEUTRALIZATION COMBINATION AND APPLICATION THEREOF” (CHENGDU KUACHANGAOPU MEDICAL TECHNOLOGY CO., LTD., priority 2020, published 2023)
Where a name gives a salt, the structure may show the parent alone.

What was measured:
sarcoma S180 cell = assay: Tumor inhibition effect in mice bearing sarcoma S180 cell (Example 2); type: in vivo; conditions: intratumoral injection; for Tumor weight (x ± s): 150 μl/mouse, once every 3 days x3, 5th day after end; for Tumor inhibition rate: vs negative control group 01
Method: (§1) In the following examples of the present invention, the co-administration pharmaceutical efficacies of drug A and drug B combination administration was determined by ratio q of actual pharmaceutical efficacy/expected pharmaceutical efficacy according to Zhengjun JIN method, as follows.
In the tumor inhibition effect study, successfully modeled experimental animals (mice bearing sarcoma S180 cell, with an average tumor volume of 314 mm^3) were randomly divided into 2 negative control groups (01, 02) and 9 drug study groups (1-9). […] The negative control and study drugs were administered by intraperitoneal injection (groups 02, 6 and 9) and intratumoral injection (other study groups), respectively. Each group was administered once every 3 days for a total of 3 times, with an injection volume of 150 μl/mouse. On the 5th day after the administration was ended, the animals were euthanized, and the tumor weight was measured after anatomy to the animals. The tumor inhibition rate was calculated from the negative control group of each drug administration mode.

liver tissue = assay: Tissue necrosis study: necrotic zone of liver tissue after intrahepatic injection (Example 2); type: in vivo, New Zealand Large White rabbits
Method: The rabbits were kept on conventional diet after drug administration, euthanized after 1 week, and the necrotic zone of the liver was determined after autopsy. The liver was incised along the center of the necrotic zone, and the extent of the necrotic zone was measured at the largest level, and the maximum and minimum diameters of the necrotic zone were measured respectively. The average diameter of the necrotic zone of liver tissue=(maximum diameter+minimum diameter)/2.

[1] = pH of the study drug aqueous solution; type: physicochemical
tumor = assay: Tumor inhibition rate, general statements (chemical ablation study; positive controls); type: in vivo
breast cancer 4T1 cells [2] = assay: Tumor inhibition, breast cancer 4T1 transplantation tumor (Example 7); type: in vivo, BALB/c mouse; conditions: intratumoral; for Tumor weight (x ± s): 150 ul/mouse, once every 3 days x3, 5th day after end; for Tumor inhibition rate: vs negative control
Method: as §1
In an experiment, the test animal was a BALB/c mouse, the modeling cells were breast cancer 4T1 cells, and the transplantation tumor was modeled at 1×10^6 cells/mouse under the skin of the animal's right axilla. […] The negative controls and study drugs were administered intraperitoneally (groups 02, 11 and 15) and intratumorally (other study groups), respectively. All groups were dosed once every 3 days, for a total of 3 times, […], with an injection volume of 150 ul/mouse. On the 5th day after the administration was ended, the animals were euthanized, and the tumor weight was measured after anatomy to the animals. The tumor inhibition rate was calculated from the negative control group.

breast cancer 4T1 cells [3] = assay: Tumor inhibition, breast cancer 4T1 transplantation tumor (Example 8); type: in vivo, BALB/c mouse; conditions: intratumoral; for Tumor weight (x ± s): 150 μl/mouse, once every 3 days x3, 5th day after end; for Tumor inhibition rate: vs negative control
Method: as §1
In an experiment, the test animal was a BALB/c mouse, the modeling cells were breast cancer 4T1 cells, and the transplantation tumor was modeled at 1×10^5 cells/mouse under the skin of the animal's right axilla. Successfully modeled experimental animals (with an average tumor volume of 336 mm^3) were divided into 1 negative control group (group 0) and 16 drug study groups (groups 1-16). […] Each group was administered by intratumoral injection once every 3 days for a total of 3 times, each time at an injection dose of 150 μl/mouse. On the 5th day after the administration was ended, the animals were euthanized, and the tumor weight was measured after anatomy to the animals. The tumor inhibition rate was calculated from the negative control group.

[4] = test system: mouse liver cancer Hepa1-6 cells; assay: Series B: tumor inhibition, Hepa1-6 transplantation tumor in 8-month-old mice (Example 10); type: in vivo; conditions: one intratumoral injection 100 μl/mouse; for r'3d, tumor inhibition rate (tumor volume): day 3; for r'14d, tumor inhibition rate (tumor volume): day 14
Method: The animals in series B were modeled in 8-month-old mice as a middle-aged and elderly patient model, which was not consistent with the commonly used young patient model in terms of tumor formation, tumor histomorphology, and body immunocompetence. […] The model animals were randomly divided into 13 groups. Each group was administered once by intratumoral injection according to the drug grouping in Table 11 with an injection volume of 100 μl/mouse.
The actual/expected ratio […] for short-term drug efficacy and the actual/expected ratio q14d for medium-term drug efficacy were calculated based on the drug efficacies (r′3d, […]) at different times (day 3, day 14), respectively.

breast cancer 4T1 cells [5] = assay: Tumor inhibition, breast cancer 4T1 transplantation tumor (Example 3); type: in vivo, BALB/c mouse; conditions: intratumoral; for Tumor weight (x ± s): 150 μl/mouse, once every 3 days x3, 5th day after end; for Tumor inhibition rate: vs negative control
Method: as §1
In an experiment, the test animal was a BALB/c mouse, the modeling cells were breast cancer 4T1 cells, and the transplantation tumor was modeled at 1×10^6 cells/mouse under the skin of the animal's right axilla. […] Each group was administered by intratumoral injection once every 3 days for a total of 3 times, each time at an injection dose of 150 μl/mouse. On the 5th day after the administration was ended, the animals were euthanized, and the tumor weight was determined after anatomy to the animals. The tumor inhibition rate was calculated from the negative control group.

[6] = test system: outer lateral muscle of right leg; assay: Series A: tissue destruction in normal muscle after intramuscular injection (Example 10); type: in vivo, nude mice; conditions: one intramuscular injection 100 μl/mouse, day 3
Method: The test animals were divided into two series, A and B. The animals in series A were non-modeled nude mice, randomly divided into four groups, and were injected with the drugs according to groups 1-4 in Table 11 by intramuscular injection of outer lateral muscle of right leg. Each group was administered once, at an injection volume of 100 μl/mouse. On day 3 after the administration was ended, the animals were euthanized, and the specimens from outer lateral muscle mass of right leg of the nude mice were dissected and taken out, and gross pathological analysis was performed. The muscle sections were measured for distinguishing the area of tissue destruction region in the normal muscle (incomplete necrosis) (T3a) and the area of severe tissue destruction region therein (complete necrosis) […], and the results are shown in Table 11 below.

breast cancer 4T1 cells [7] = assay: Tumor inhibition, breast cancer 4T1 transplantation tumor (Example 4); type: in vivo, BALB/c mice; conditions: intratumoral
Method: as §1
In another experiment, the test animal was BALB/c mice, the modeling cells were breast cancer 4T1 cells, and the transplantation tumor was modeled at 1×10^6 cells/mouse under the skin of the animal's right axilla. Successfully modeled experimental animals (average tumor volume 307 mm^3) were randomly divided into 1 negative control group (group 0) and 13 drug study groups (groups 1-13). […] Each group was administered by intratumoral injection once every 3 days for a total of 3 times, each time at an injection dose of 150 μl/mouse. On the 5th day after the administration was ended, the animals were euthanized, and the tumor weight was measured after anatomy to the animals. The tumor inhibition rate was calculated from the negative control group.

[8] = study drugs of Example 2 (Table 4), aqueous solution
[9] = positive controls, under the conditions of the following examples
[10] = study drugs of Example 3 (Table 5), aqueous solution

Question: What does the source list for `[Na+].[OH-]` [0.3% NaOH, sodium hydroxide]?
Answer: Tumor weight (x ± s) (sarcoma S180 cell): 1.52 ± 0.22 g; Tumor inhibition rate (sarcoma S180 cell): 31%; Diameter of necrotic zone of liver tissue (r ± s) (liver tissue; rabbit, in vivo): 1.3 ± 0.3 cm; pH [1, 8]: 13.3

Question: For `O=c1[nH]cc(F)c(=O)[nH]1` [0.5-1% 5-fluorouracil, 5-fluorouracil], which Tumor inhibition rate (tumor; [9]) is on record?
Answer: The Tumor inhibition rate was no less than 30%.

Question: Which results are given for `O=c1[nH]cc(F)c(=O)[nH]1` [1% 5-fluorouracil, 5-fluorouracil]?
Answer: Tumor weight (x ± s) (breast cancer 4T1 cells [2]): 1.07 ± 0.26 g; Tumor inhibition rate (breast cancer 4T1 cells [2]): 51%; Tumor weight (x ± s) (breast cancer 4T1 cells [3]): 1.10 ± 0.26 g; Tumor inhibition rate (breast cancer 4T1 cells [3]): 51%; r'3d, tumor inhibition rate (tumor volume) [4]: 26.8%; r'14d, tumor inhibition rate (tumor volume) [4]: 3.1%

Question: Which “Tumor weight (x ± s)” value (breast cancer 4T1 cells [2]) does the source give for `CN(C)c1ccc2nc3ccc(=[N+](C)C)cc-3sc2c1` [1% methylene blue, methylene blue] here?
Answer: The value was 1.72 ± 0.27 g.

Question: What about the Tumor inhibition rate (breast cancer 4T1 cells [2]) of the same molecule?
Answer: Its Tumor inhibition rate is 21%.

Question: What about the “Tumor weight (x ± s)” value (breast cancer 4T1 cells [3]) of the same molecule?
Answer: The value was 1.73 ± 0.23 g.

Question: And the Tumor inhibition rate (breast cancer 4T1 cells [3])?
Answer: The Tumor inhibition rate was 23%.

Question: And the “r'3d, tumor inhibition rate (tumor volume)” value (shortened to “r'3d, tumor inhibition rate”) [4]?
Answer: The value was 27.8%.

Question: What about the “r'14d, tumor inhibition rate (tumor volume)” value (shortened to “r'14d, tumor inhibition rate”) [4] of the same molecule?
Answer: The value was 16.9%.

Question: With `[Na+].[OH-]` [3% NaOH, sodium hydroxide] as the molecule, how does the “Tumor weight (x ± s)” value (sarcoma S180 cell) read?
Answer: The value was 1.04 ± 0.21 g.

Question: And the Tumor inhibition rate (sarcoma S180 cell)?
Answer: The Tumor inhibition rate was 53%.

Question: And the “Diameter of necrotic zone of liver tissue (r ± s)” value (liver tissue; rabbit, in vivo)?
Answer: The value was 1.8 ± 0.5 cm.

Question: What about the pH [1, 8] of the same molecule?
Answer: Its pH is 13.8.

Question: What about the pH ([1]; study drugs of Example 2 (Table 4), aqueous solution, listed as 3% sodium hydroxide) of the same molecule?
Answer: Its pH is 11.8.

Question: What about the pH [1, 10] of the same molecule?
Answer: The pH was 13.7.

Question: What about the “Tumor weight (x ± s)” value (breast cancer 4T1 cells [5]) of the same molecule?
Answer: Its value is 1.09 ± 0.25 g.

Question: And the Tumor inhibition rate (breast cancer 4T1 cells [5])?
Answer: The Tumor inhibition rate was 55%.

Question: What about the “S3d, area of severe tissue destruction region (complete necrosis)” value [6] of the same molecule?
Answer: Its value is 18.3 mm^2.

Question: What about the “T3d, area of tissue destruction region in the normal muscle (incomplete necrosis)” value [6] of the same molecule?
Answer: Its value is 29.6 mm^2.

Question: What about the “r'3d, tumor inhibition rate” value [4] of the same molecule?
Answer: Its value is 31.2%.

Question: And the “r'14d, tumor inhibition rate” value [4]?
Answer: The value was 2.8%.

Question: With `C=C[C@H]1C[N@@]2CC[C@H]1C[C@H]2[C@H](O)c1ccnc2ccc(OC)cc12` [5% quinine dihydrochloride, quinine dihydrochloride] as the molecule, how does the “Tumor weight (x ± s)” value (breast cancer 4T1 cells [3]; dihydrochloride) read?
Answer: The value was 1.46 ± 0.21 g.

Question: What about the Tumor inhibition rate (breast cancer 4T1 cells [3]; dihydrochloride) of the same molecule?
Answer: The Tumor inhibition rate was 35%.

Question: Which “Tumor weight (x ± s)” value (sarcoma S180 cell) does the source give for `O=C([O-])O.[Na+]` [7% sodium bicarbonate, sodium bicarbonate] here?
Answer: The value was 1.59 ± 0.20 g.

Question: And the Tumor inhibition rate (sarcoma S180 cell)?
Answer: The Tumor inhibition rate was 28%.

Question: And the pH [1, 8]?
Answer: Its pH is 8.1.

Question: What about the pH [1, 10] of the same molecule?
Answer: Its pH is 8.1.

Question: What about the “Tumor weight (x ± s)” value (breast cancer 4T1 cells [5]) of the same molecule?
Answer: Its value is 1.73 ± 0.27 g.

Question: What about the Tumor inhibition rate (breast cancer 4T1 cells [5]) of the same molecule?
Answer: The Tumor inhibition rate was 29%.

Question: What about the “S3d, area of severe tissue destruction region (complete necrosis)” value [6] of the same molecule?
Answer: The value was 0 mm^2.

Question: And the “T3d, area of tissue destruction region in the normal muscle (incomplete necrosis)” value [6]?
Answer: The value was 0 mm^2.

Question: And the “r'3d, tumor inhibition rate” value [4]?
Answer: The value was 4.1%.

Question: And the “r'14d, tumor inhibition rate” value [4]?
Answer: The value was 3.9%.

Question: With `N=C(N)NCCC[C@H](N)C(=O)O` [15% arginine, arginine] as the molecule, how does the “Tumor weight (x ± s)” value (sarcoma S180 cell) read?
Answer: Its value is 2.01 ± 0.24 g.

Question: And the Tumor inhibition rate (sarcoma S180 cell)?
Answer: The Tumor inhibition rate was 23%.

Question: And the “Diameter of necrotic zone of liver tissue (r ± s)” value (liver tissue; one intrahepatic injection of 1.0 mL, after 1 week)?
Answer: The value was 0.2 ± 0.1 cm.

Question: And the pH [1, 8]?
Answer: Its pH is 10.9.

Question: And the pH ([1]; study drugs of Example 4 (Table 6), aqueous solution)?
Answer: Its pH is 11.0.

Question: What about the pH ([1]; study drugs of Example 7 (Table 9), aqueous solution) of the same molecule?
Answer: Its pH is 10.9.

Question: What about the “Tumor weight (x ± s)” value (breast cancer 4T1 cells [7]; 150 μl/mouse, once every 3 days x3, 5th day after end) of the same molecule?
Answer: Its value is 1.74 ± 0.28 g.

Question: And the Tumor inhibition rate (breast cancer 4T1 cells [7]; vs negative control)?
Answer: The Tumor inhibition rate was 23%.

Question: And the “Tumor weight (x ± s)” value (breast cancer 4T1 cells [2])?
Answer: Its value is 1.64 ± 0.28 g.

Question: And the Tumor inhibition rate (breast cancer 4T1 cells [2])?
Answer: Its Tumor inhibition rate is 25%.

Question: For `CCO` [75-99% ethanol, ethanol], which Tumor inhibition rate (tumor; [9]) is on record?
Answer: Its Tumor inhibition rate is no less than 15%.

Question: Which pH ([1]; sodium hydroxide solution before and after neutralization with sodium bicarbonate (e.g.)) does the source give for `[Na+].[OH-]` [sodium hydroxide] here?
Answer: Its pH is 12.

Question: What about the Tumor inhibition rate (tumor; chemical ablation study with basifying agents, model not stated) of the same molecule?
Answer: The Tumor inhibition rate was 43%.
